Patent US10703746B2, “Mutant IDH1 inhibitors useful for treating cancer” (THE UNITED STATES OF AMERICA, AS REPRESENTED BY THE …, priority 2014, dated 2020)

Tests used:
[1] = biological target: IDH1 R132C (Homo sapiens, UniProt O75874, R132C); assay: IDH1 R132C enzymatic assay (NADPH depletion coupled to diaphorase/resazurin); assay type: biochemical
How it was run: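 NADPH depletion, read via diaphorase/resazurin coupling, after adding substrate at 0.6 mM α-KG and 0.012 mM NADPH. Beforehand, 0.00032 mg/mL enzyme sat with compound 30 min at room temperature in pH 6.5 potassium phosphate buffer with MgCl2, glycerol and BSA.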

[2] = biological target: IDH1 R132H (Homo sapiens, UniProt O75874, R132H); assay: IDH1 R132H enzymatic assay (NADPH depletion coupled to diaphorase/resazurin); assay type: biochemical
Sequence of IDH1 R132H (O75874 whole entry R132H): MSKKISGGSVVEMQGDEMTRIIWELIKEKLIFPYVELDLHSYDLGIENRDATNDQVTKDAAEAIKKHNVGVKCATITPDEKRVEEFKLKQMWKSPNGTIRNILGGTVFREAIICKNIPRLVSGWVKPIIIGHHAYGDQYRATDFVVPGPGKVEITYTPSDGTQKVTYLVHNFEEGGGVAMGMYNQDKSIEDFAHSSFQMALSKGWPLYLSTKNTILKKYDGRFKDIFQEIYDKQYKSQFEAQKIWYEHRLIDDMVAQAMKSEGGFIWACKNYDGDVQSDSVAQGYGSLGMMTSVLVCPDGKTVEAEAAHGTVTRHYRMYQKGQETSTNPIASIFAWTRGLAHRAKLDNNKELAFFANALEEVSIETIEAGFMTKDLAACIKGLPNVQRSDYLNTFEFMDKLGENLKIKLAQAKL

[3] = IDH1 R132C enzymatic inhibition, IC50 class
[4] = IDH1 R132H enzymatic inhibition, IC50 class
[5] = enzymatic inhibition, IDH1 R132C
[6] = enzymatic inhibition, IDH1 R132H

Sequence of IDH1 R132C (O75874 whole entry R132C): as the sequence (O75874 whole entry R132H) above, with H132C counted along it

Compound	IC50 [1, 3]	IC50 [2, 4]	IC50 [1, 5]	IC50 [2, 6]
CCc1cccc(CC)c1-n1c(C=C(C)C)c(C(=O)N2CCNCC2(C)C)cc(-c2nc(-c3ccc(Cl)cc3)cs2)c1=O [Compound 366]	< 300 nM	< 300 nM	–	–
CCc1cccc(CC)c1-n1c(C=C(C)C)c(C(=O)N2CCNCC2CC(C)C)cc(-c2nc(-c3ccc(Cl)cc3)cs2)c1=O (stereo not shown) [Compound 621]	< 300 nM	300 to 1000 nM	–	–
COc1ccc(OC)c(-n2c3c(cc(-c4cc(-c5ccccc5)[nH]n4)c2=O)C(=O)CC(C)(C)C3)c1 [Compound 294]	5000 to 20000 nM	> 20000 nM	–	–
CCc1cccc(CC)c1-n1c(CC(C)C)c(C(=O)N2CCNC3(CCC3)C2)cc(-c2nc(-c3ccc(Cl)cc3)cs2)c1=O [Compound 465]	–	–	< 300 nM	< 300 nM
COCc1ncc(Cl)cc1-n1c(C=C(C)C)c(C(=O)N2CCNCC2)cc(-c2nc(-c3ccc(C(F)(F)F)cc3)cs2)c1=O [Compound 586]	–	–	< 300 nM	< 300 nM
CCc1cccc(CC)c1-n1c(CC(C)C)c(C(=O)N2CCNCC2)cc(-c2ccn(Cc3ccc(Cl)cc3)n2)c1=O [Compound 487]	–	–	> 20000 nM	> 20000 nM
Cc1noc(-n2c3c(cc(-c4nc(-c5ccc(Cl)cc5)cs4)c2=O)C(=O)CC(C)(C)C3)c1C [Compound 277]	1000 to 5000 nM	1000 to 5000 nM	–	–
CC(C)=Cc1c(C(=O)N2CCNCC2)cc(-c2nc(-c3ccc(Cl)cc3)cs2)c(=O)n1-c1cc(C)ccc1Cl [Compound 357]	< 300 nM	< 300 nM	–	–
CCc1cccc(CC)c1-n1c(-c2ccn(-c3ccccc3)n2)c(C(=O)N2CCNCC2)cc(-c2nc(-c3ccc(Cl)cc3)cs2)c1=O [Compound 317]	1000 to 5000 nM	5000 to 20000 nM	–	–
CCc1cccc(CC)c1-n1c(C=C(C)C)c(C(=O)N2CCNC(CC)C2)cc(-c2nc(-c3ccc(Cl)cc3)cs2)c1=O (stereo not shown) [Compound 550]	–	–	< 300 nM	< 300 nM
CCc1cccc(CC)c1-n1c(CC(C)C)c(C(=O)N[C@H](C)CO)cc(-c2nc(-c3ccc(Cl)cc3)cs2)c1=O [Compound 64]	300 to 1000 nM	1000 to 5000 nM	–	–
CCc1cccc(CC)c1-n1c(CC(C)C)c(C(=O)N2CCN[C@H](C(=O)O)C2)cc(-c2nc(-c3ccc(Cl)cc3)cs2)c1=O [Compound 189]	< 300 nM	300 to 1000 nM	–	–
CCc1cccc(CC)c1-n1c(CC(C)C)c(C(=O)N2CCNCC2)cc(-c2nc(-c3ccc(Cl)cc3F)c(C)s2)c1=O [Compound 632]	300 to 1000 nM	300 to 1000 nM	–	–
COc1c(C(=O)O)cccc1-n1c2c(cc(-c3nc(-c4ccc(Cl)cc4)cs3)c1=O)C(=O)CC(C)(C)C2 [Compound 174]	5000 to 20000 nM	> 20000 nM	–	–
CC1(C)CC(=O)c2cc(-c3nc(-c4ccncc4)cs3)c(=O)n(-c3ccccc3C(F)(F)F)c2C1 [Compound 255]	1000 to 5000 nM	1000 to 5000 nM	–	–
Cc1nonc1-n1c2c(cc(-c3nc(-c4ccc(Cl)cc4)cs3)c1=O)C(=O)CC(C)(C)C2 [Compound 439]	–	–	1000 to 5000 nM	> 20000 nM
CCc1cccc(CC)c1-n1c(C=C(C)C)c(C(=O)N2CCNCC2)cc(-c2nn(-c3ccc(Cl)cc3)cc2C(F)(F)F)c1=O [Compound 435]	–	–	5000 to 20000 nM	1000 to 5000 nM
COc1ccc(OC)c(-n2c3c(cc(-c4nc(-c5ccc(Cl)cc5)cs4)c2=O)C=CC(C)(C)C3)c1 [Compound 144]	1000 to 5000 nM	1000 to 5000 nM	–	–
CCc1ncc(C)cc1-n1c(C=C(C)C)c(C(=O)N2CCNCC2)cc(-c2nc(-c3ccc(Cl)cc3)cs2)c1=O [Compound 330]	300 to 1000 nM	< 300 nM	–	–
COc1ccc(OC)c(-n2c3c(cc(-c4nc(-c5ccc(Cl)cc5)cs4)c2=O)C(=O)CC3)c1 [Compound 24]	5000 to 20000 nM	> 20000 nM	–	–
CCc1cccc(C)c1-n1c2c(cc(-c3nc(-c4ccc(Cl)cc4)cs3)c1=O)C(=O)CC(C)(C)C2 [Compound 279]	300 to 1000 nM	1000 to 5000 nM	–	–
CCc1cccc(CC)c1-n1c(C=C(C)C)c(C(=O)N2CCN(c3ccccc3C(F)(F)F)CC2)cc(-c2nc(-c3ccc(Cl)cc3)cs2)c1=O [Compound 480]	–	–	5000 to 20000 nM	5000 to 20000 nM
CCc1cccc(CC)c1-n1c(C=C(C)C)c(C(=O)N2C(C)CNCC2C(=O)O)cc(-c2nc(-c3ccc(Cl)cc3)cs2)c1=O (stereo not shown) [Compound 660]	< 300 nM	< 300 nM	–	–
CCc1ncc(OC)cc1-n1c(C=C(C)C)c(C(=O)N2CCNCC2)cc(-c2nc(-c3ccc(C(F)F)cn3)cs2)c1=O [Compound 466]	–	–	5000 to 20000 nM	1000 to 5000 nM
CCc1cccc(CC)c1-n1c(C=C(C)C)c(C(=O)N2CCNCC2)cc(-c2nc(-c3ccc(C(F)(F)F)nc3)cs2)c1=O [Compound 418]	–	–	< 300 nM	< 300 nM
CCOc1ccc(-n2ccc(-c3cc(C(=O)N4CCNCC4)c(CC(C)C)n(-c4c(CC)cccc4CC)c3=O)n2)cc1 [Compound 458]	–	–	< 300 nM	< 300 nM
CC(C)c1ccccc1-n1c2c(cc(-c3nc(-c4ccc(Cl)cc4)cs3)c1=O)C(=O)CC(C)(C)C2 [Compound 178]	300 to 1000 nM	300 to 1000 nM	–	–

Compound	IC50 [1, 3]	IC50 [2, 4]	IC50 [1, 5]	IC50 [2, 6]
CCc1cccc(CC)c1-n1c(CC(C)C)c(C(=O)N2CCN[C@@H](CO)C2)cc(-c2nc(-c3ccc(Cl)cc3)cs2)c1=O [Compound 8]	< 300 nM	< 300 nM	–	–
CCSc1ccccc1-n1c2c(cc(-c3nc(-c4ccc(Cl)cc4)cs3)c1=O)C(=O)CC(C)(C)C2 [Compound 134]	300 to 1000 nM	1000 to 5000 nM	–	–
COc1ncc(Cl)cc1-n1c(C=C(C)C)c(C(=O)N2CCNCC2)cc(-c2nc(-c3ccc(Cl)cc3)cs2)c1=O [Compound 490]	–	–	< 300 nM	< 300 nM
CCc1cccc(CC)c1-n1c(C=C(C)C)c(C(=O)N2CCNCC2C(C)C)cc(-c2nc(-c3ccc(Cl)cc3)cs2)c1=O (stereo not shown) [Compound 332]	< 300 nM	300 to 1000 nM	–	–
CC1(C)CC(=O)c2cc(-c3nc(-c4ccc(Cl)cc4)cs3)c(=O)n(C3CCCCC3)c2C1 [Compound 216]	5000 to 20000 nM	> 20000 nM	–	–
CCc1ncc(F)cc1-n1c(C=C(C)C)c(C(=O)N2CCNCC2)cc(-c2nc(-c3ccc(C(F)F)cc3)cs2)c1=O [Compound 524]	–	–	< 300 nM	< 300 nM
COc1ccc(Cl)c(-n2c(C=C(C)C)c(C(=O)N3CCNCC3)cc(-c3nc(-c4ccc(Cl)cc4)cs3)c2=O)c1 [Compound 500]	–	–	< 300 nM	< 300 nM
CCc1cccc(CC)c1-n1c(C)c(C(=O)N2CCN[C@@H](C(=O)O)C2)cc(-c2nc(-c3ccc(Cl)cc3)cs2)c1=O [Compound 21]	1000 to 5000 nM	300 to 1000 nM	–	–
CCc1cccc(CC)c1-n1c(C)c(C(=O)N2CCCNCC2)cc(-c2nc(-c3ccc(Cl)cc3)cs2)c1=O [Compound 66]	300 to 1000 nM	300 to 1000 nM	–	–
COc1ccc(Cl)c(-n2c(CC(C)C)c(C(=O)N3CCNCC3)cc(-c3nc(-c4ccc(Cl)cc4)cs3)c2=O)c1 [Compound 364]	300 to 1000 nM	< 300 nM	–	–
CCc1cccc(CC)c1-n1c(CC(C)C)c(C(=O)NC2CCNCC2)cc(-c2nc(-c3ccc(Cl)cc3)cs2)c1=O [Compound 263]	< 300 nM	300 to 1000 nM	–	–
CCOc1ccc(F)cc1-n1c(C=C(C)C)c(C(=O)N2CCNCC2)cc(-c2nc(-c3ccc(C(F)F)cc3)cs2)c1=O [Compound 376]	< 300 nM	< 300 nM	–	–
CCc1cccc(CC)c1-n1c(C=C(C)C)c(C(=O)N2CCNCC2C)cc(-c2nc(-c3ccc(Cl)cc3)cs2)c1=O (stereo not shown) [Compound 631]	< 300 nM	< 300 nM	–	–
CCc1cccc(CC)c1-n1c(C=C(C)C)c(C(=O)N2CCNC[C@@H]2C)cc(-c2nc(-c3ccc(C(F)(F)F)cc3)cs2)c1=O [Compound 604]	–	–	< 300 nM	< 300 nM
CCc1cccc(CC)c1-n1c(CC(C)C)c(C(=O)N2CCNC(=O)C2)cc(-c2nc(-c3ccc(Cl)cc3)cs2)c1=O [Compound 91]	< 300 nM	< 300 nM	–	–
CCc1cccc(CC)c1-n1c(CC(C)C)c(C(=O)NC(C)CO)cc(-c2nc(-c3ccc(Cl)cc3)cs2)c1=O (stereo not shown) [Compound 118]	< 300 nM	300 to 1000 nM	–	–
CCc1ccccc1-n1c(C=C(C)C)c(C(=O)N2CCNCC2)cc(-c2nc(-c3ccc(Cl)cc3)cs2)c1=O [Compound 596]	–	–	< 300 nM	< 300 nM
CN1CCN(Cc2ccccc2-n2c3c(cc(-c4nc(-c5ccc(Cl)cc5)cs4)c2=O)C(=O)CCC3)CC1 [Compound 440]	–	–	5000 to 20000 nM	5000 to 20000 nM
CC(C)Sc1ccccc1-n1c2c(cc(-c3nc(-c4ccc(Cl)cc4)cs3)c1=O)C(=O)CC(C)(C)C2 [Compound 51]	1000 to 5000 nM	> 20000 nM	–	–
CCOc1ncc(Cl)cc1-n1c(C=C(C)C)c(C(=O)N2CCNCC2)cc(-c2nc(-c3ccc(C(F)F)nc3)cs2)c1=O [Compound 580]	–	–	300 to 1000 nM	< 300 nM
CCc1cccc(CC)c1-n1c(CC(C)C)c(C(=O)N2CCNC[C@H]2C)cc(-c2nc(-c3ccc(Cl)cc3)cs2)c1=O [Compound 267]	< 300 nM	300 to 1000 nM	–	–
CCOc1ccc(C)cc1-n1c(C=C(C)C)c(C(=O)N2CCNCC2)cc(-c2nc(-c3ccc(C(F)(F)F)nc3)cs2)c1=O [Compound 420]	–	–	< 300 nM	< 300 nM
COc1ccc(F)cc1-n1c2c(cc(-c3nc(-c4ccc(Cl)cc4)cs3)c1=O)C(=O)CCC2 [Compound 318]	1000 to 5000 nM	1000 to 5000 nM	–	–
CCc1cccc(CC)c1-n1c2c(cc(-c3nc(-c4ccc(C)nc4)c(C)s3)c1=O)C(=O)CC(C)(C)C2 [Compound 299]	1000 to 5000 nM	1000 to 5000 nM	–	–
CCc1cccc(CC)c1-n1c(CC(C)C)c(C(=O)N2CCNCC2)cc(-c2nc(-c3ccc(C(F)(F)F)cc3)c(C)s2)c1=O [Compound 210]	< 300 nM	300 to 1000 nM	–	–
CCc1cccc(CC)c1-n1c(CCC(F)(F)F)c(C(=O)N2CCNCC2)cc(-c2nc(-c3ccc(Cl)cc3)cs2)c1=O [Compound 373]	300 to 1000 nM	300 to 1000 nM	–	–
